Assay results published in patent US20240277658A1, “NLRP3 ACTIVATORS FOR USE IN THE TREATMENT OF INFECTIOUS DISEASES OR CANCER BY ACTIVATING NLRP3 INFLAMMASOME” (ALBERT-LUDWIGS-UNIVERSITÄT FREIBURG, priority 2020, published 2024).
“And” between values parts separate entries of the source, which are not always exact repeats. Equal values may be shown once. Read-outs that look alike come from different tables or passages of the source.

Tests used:
[1] = tested on: BMDCs; test: LDH release (lytic cell death, pyroptosis) from LPS-primed BMDCs; type: cell-based, mouse; conditions: for cytotoxicity at 18.75 µM / cytotoxicity at 37.5 µM / cytotoxicity at 75 µM / cytotoxicity at 50 µM: Mus musculus, BMDC; for Average (% positive control): LDH release; for cytotoxicity at 50 µM: LPS-primed BMDCs
Procedure: (§1) This was tested in cell culture in several different in vitro assays classically used to investigate inflammasome activation. These include measuring inflammasome-dependent lytic cell death (pyroptosis) by detecting release of the cytosolic enzyme lactate dehydrogenase (LDH) using a commercial colorimetric assay and release of proinflammatory cytokines like IL-1β by enzyme-linked immunosorbent assay (ELISA), analyzing cleavage and activation of caspase-1 and IL-1β by immunoblotting and immunofluorescence imaging of ASC speck formation. Lytic cell death was determined via LDH release. Assay results for compounds are illustrated in the Tables below, wherein the concentration of the compounds tested had been 50 μM or as indicated in the table, and the concentration of the known activators has been tested with 5 μM of nigericin, 100 μM of each R837 and CL097. For classification of the activity of a given molecule, release of IL-1β was quantified as % of IL-1% of a respective control activator used for the experiment (highlighted in tables with bold letters). The compounds listes in Table 1 were classified into 4 groups depending on their ability to induce the NLRP3 inflammasome activation, assessed by % IL-1β release as compared to the positive control.
(§2) Mouse bone marrow-derived dendritic cells (BMDCs) were isolated from femurs and tibias previously described (Gross, Olaf, 2012, “Measuring the inflammasome”, Methods in molecular biology, Clifton, N.J., 844, pp. 199-222.). In brief, tibias and femurs were carefully removed and put to sterile 70% ethanol for 1 minute. Using a 22-G needle attached to a 20 ml-syringe filled with sterile flushing medium, the bone marrow was pressed through the mesh of a […] cell strainer. The cells were spun down by centrifugation at 400×g, 4° C. for 5 minutes and red blood cells lysed by resuspension and incubation for 5 minutes at room temperature in RBC lysis buffer. 9 ml of flushing medium were added and cells were again spun down by centrifugation at 400×g, 4° C. for 5 minutes. Cells were then resuspended in BMDC medium (RPMI, 10% fetal bovine serum, 1% penicillin-streptomycin100 U/ml, 20 ng/ml recombinant murine GM-CSF), counted and plated at a density of 0.5×10^6 cells ml^−1 in 10 ml medium and incubated at 37° C., 5% CO2 in a humidified incubator. After 2 days, 10 ml of fresh medium were added to the cells and after 4 days, the medium was fully exchanged to 20 ml of fresh medium. The cells were allowed to differentiate for 6 to 8 days before usage.
(§3) For canonical inflammasome activation BMDCs after 7-9 days of differentiation were harvested and counted with a Neubauer Chamber (Hecht Assistant) and the concentration was set to 1 Mio cells ml^−1. 100 μl cell suspension per well were seeded in 96-well plates. The cells were primed with 50 ng ml^−1 E. coli K12 ultra-pure LPS for 3 hours and subsequently treated with canonical inflammasome activators or experimental compounds for 3 hours if not indicated differently (incubation time FIG. 4D, 5, 7, 8, 11, 13-18: 3 h, FIG. 12: 4 h). Concentrations of the stimuli were as follows if not indicated differently: 5 μM nigericin, 100 μM imiquimod (also known as R837), 100 μM CL097, 100 μM R848, […] poly(dA:dT), 300 μg ml^−1 MSU. If an inhibitor was used before stimuli treatment, the inhibitor was added after 2.5 hours of priming and it was incubated for 30 minutes before inflammasome activation. Inhibitors were used as follows: 3 μM MCC950, 45 mM KCl, 30 μM ebselen (2-Phenyl-1,2-benzoselenazol-3-one), 5 μM cytochalasin D (see FIGS. 8, 11, 12 and 17).
(§4) All inflammasome stimulations were performed in three technical replicates for each condition. […]

[2] = biological target: T1, NLRP3 inflammasome (Mus musculus, UniProt Q8R4B8); test: IL-1β release from LPS-primed BMDCs (ELISA) as readout of NLRP3 inflammasome activation; type: cell-based
T1 construct: endogenous in cells; host or cells: primary mouse bone marrow-derived dendritic cells (BMDCs), LPS-primed
Procedure: as §1, §2, §3, §4

[3] = section 1.4, 18.75 μM, read-out: Average LDH release (% of max.)
[4] = section 1.4, 37.5 μM, read-out: Average LDH release (% of max.)
[5] = section 1.4, 75 μM, read-out: Average LDH release (% of max.)
[6] = section 1.4, single replicates, 18.75 μM, read-out: LDH release (% of max.)
[7] = section 1.4, single replicates, 37.5 μM, read-out: LDH release (% of max.)
[8] = section 1.4, single replicates, 75 μM, read-out: LDH release (% of max.)
[9] = section 1.4, 18.75 μM, positive control EN22 18.75 μM
[10] = section 1.4, 37.5 μM, positive control EN22 18.75 μM
[11] = section 1.4, 75 μM, positive control EN22 18.75 μM
[12] = 18.75 μM, individual replicate values
[13] = 37.5 μM, individual replicate values
[14] = 75 μM, individual replicate values
[15] = IL-1β, 18.75 μM, positive control EN22 18.75 μM
[16] = IL-1β, 37.5 μM, positive control EN22 18.75 μM
[17] = IL-1β, 75 μM, positive control EN22 18.75 μM
[18] = compound 50 μM, positive control nigericin 5 μM
[19] = compound 50 μM, read-out: Average LDH release (% of max.)
[20] = single replicates, compound 50 μM, read-out: LDH release (% of max.)
[21] = IL-1β release, compound 50 μM, positive control nigericin 5 μM
[22] = compound 50 μM, LPS-primed BMDCs
[23] = single replicates, compound 50 μM, LPS-primed BMDCs

T1 sequence (Q8R4B8 whole entry): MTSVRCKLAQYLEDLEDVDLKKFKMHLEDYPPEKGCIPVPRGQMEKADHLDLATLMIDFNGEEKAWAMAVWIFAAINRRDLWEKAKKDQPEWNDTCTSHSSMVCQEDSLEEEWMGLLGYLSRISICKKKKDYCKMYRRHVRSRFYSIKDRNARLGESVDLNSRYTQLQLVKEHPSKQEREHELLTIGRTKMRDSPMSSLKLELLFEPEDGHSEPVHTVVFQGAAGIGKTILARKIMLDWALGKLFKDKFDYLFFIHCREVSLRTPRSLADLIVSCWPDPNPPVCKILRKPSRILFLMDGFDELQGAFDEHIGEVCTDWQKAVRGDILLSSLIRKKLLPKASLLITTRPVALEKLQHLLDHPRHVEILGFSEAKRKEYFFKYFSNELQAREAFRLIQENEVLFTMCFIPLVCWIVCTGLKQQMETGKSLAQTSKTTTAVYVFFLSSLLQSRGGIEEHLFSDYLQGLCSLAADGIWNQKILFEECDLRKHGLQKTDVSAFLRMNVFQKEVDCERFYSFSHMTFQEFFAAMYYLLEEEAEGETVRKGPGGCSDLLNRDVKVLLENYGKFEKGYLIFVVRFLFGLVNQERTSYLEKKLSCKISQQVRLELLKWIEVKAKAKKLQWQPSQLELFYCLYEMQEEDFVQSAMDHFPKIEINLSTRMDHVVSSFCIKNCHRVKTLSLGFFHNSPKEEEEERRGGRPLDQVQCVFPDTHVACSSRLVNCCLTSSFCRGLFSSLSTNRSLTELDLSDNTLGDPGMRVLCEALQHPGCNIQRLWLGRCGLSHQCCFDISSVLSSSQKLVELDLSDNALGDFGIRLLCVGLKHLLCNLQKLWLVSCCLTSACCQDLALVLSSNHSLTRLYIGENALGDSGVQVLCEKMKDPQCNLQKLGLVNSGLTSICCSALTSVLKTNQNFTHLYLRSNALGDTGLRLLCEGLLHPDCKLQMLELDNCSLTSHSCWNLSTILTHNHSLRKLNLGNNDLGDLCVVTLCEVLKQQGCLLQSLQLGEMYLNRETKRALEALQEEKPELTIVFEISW

SMILES | cytotoxicity at 18.75 µM [1, 3] [%] | cytotoxicity at 37.5 µM [1, 4] [%] | cytotoxicity at 75 µM [1, 5] [%] | cytotoxicity at 18.75 µM [1, 6] [%] | cytotoxicity at 37.5 µM [1, 7] [%] | cytotoxicity at 75 µM [1, 8] [%] | Average (% positive control) [1, 9] [% positive control] | Average (% positive control) [1, 10] [% positive control] | Average (% positive control) [1, 11] [% positive control] | Average IL-1β ([2]; 18.75 μM) [ng/mL] | IL-1β [2, 12] | Average IL-1β ([2]; 37.5 μM) [ng/mL] | IL-1β [2, 13] | Average IL-1β ([2]; 75 μM) [ng/mL] | Average (% positive control) [1, 18] [% positive control] | cytotoxicity at 50 µM [1, 19] [%] | cytotoxicity at 50 µM [1, 20] [%] | Average (% positive control) [2, 21] [% positive control] | Average IL-1β [2, 22] [ng/mL] | IL-1β [2, 23] | also measured
O=C(Nc1ccccc1Cl)Nc1ccc([N+](=O)[O-])cc1Cl [A.C2, 3-(2-chloro-4-nitrophen-yl)-1-(2-chlorophenyl)-urea] | 17.8 | 45.7 | 75.8 | 18.4 | 46.6 | 77.1 | 24.912 | 64.016 | 106.244 | 0.118 | 0.128 ng/mL and 0.116 ng/mL and 0.111 ng/mL | 0.361 | 0.377 ng/ml and 0.353 ng/ml (2×) | 0.525 | – | – | – | – | – | – | IL-1β [2, 14]: 0.459 ng/mL and 0.546 ng/mL and 0.571 ng/mL; Average (% positive control) [2, 15]: 1.870 % positive control; Average (% positive control) [2, 16]: 5.712 % positive control; Average (% positive control) [2, 17]: 8.308 % positive control
O=C(Nc1cccc(S(=O)(=O)C2CCCC2)c1)N1CCCCC1c1nc(-c2ccccc2)no1 (stereo not drawn) [L01.099, N-[3-(cyclopentane-sulfonyl)phenyl]-2-(3-phenyl-1,2,4-oxadiazol-5-yl)piperidine-1-carboxamide] | – | – | – | – | – | – | – | – | – | – | – | – | – | – | 13.410 | 9.81 | 10.6 | 0.932 | 0.067 | 0.074 ng/mL and 0.067 ng/mL and 0.059 ng/mL | –
CC(C)C(NC(=O)Nc1cccc(C(F)(F)F)c1)c1nc(-c2cccnc2)no1 (stereo not drawn) [L01.005, 3-{2-methyl-1-[3-(pyridin-3-yl)-1,2,4-oxadiazol-5-yl]propyl}-1-[3-(trifluoromethyl)-phenyl]urea] | – | – | – | – | – | – | – | – | – | – | – | – | – | – | 20.238 | 14.8 | 9.31 | 0.980 | 0.070 | 0.053 ng/mL and 0.074 ng/mL and 0.084 ng/mL | –
COc1ccc(NC(=O)Nc2ccc(-c3noc(CC4CCCN(Cc5cccc(F)c5C)C4)n3)cc2)cc1 (stereo not drawn) [PM07, 1-[4-(5-((1-(3-fluoro-2-methylbenzyl)piperidin-3-yl)methyl)-1,2,4-oxadiazol-3-yl)phenyl]-3-[(4-methoxy)phenyl] urea] | 51 | 69.3 | 85.6 | 50.4 | 67.7 | 85.1 | 71.489 | 97.102 | 120.051 | 1.335 | 1.117 ng/mL and 1.248 ng/mL and 1.641 ng/mL | 1.594 | 1.916 ng/mL and 1.571 ng/mL and 1.295 ng/mL | 1.217 | – | – | – | – | – | – | IL-1β [2, 14]: 1.202 ng/mL and 1.130 ng/mL and 1.320 ng/mL; Average (% positive control) [2, 15]: 21.124 % positive control; Average (% positive control) [2, 16]: 25.211 % positive control; Average (% positive control) [2, 17]: 19.256 % positive control
Cc1cccc(-c2noc(CN3C(=O)CN(c4ccccc4)C3=O)n2)c1 [L01.069, 3-{[3-(3-methylphenyl)-1,2,4-oxadiazol-5-yl]-methyl}-1-phenylimid-azolidine-2,4-dione] | – | – | – | – | – | – | – | – | – | – | – | – | – | – | 12.713 | 9.3 | 9.2 | 1.941 | 0.139 | 0.131 ng/mL and 0.138 ng/mL and 0.149 ng/mL | –
COc1cccc(NC(=O)NCc2nc(Cc3ccccc3)no2)c1 [L01.067, 3-[(3-benzyl-1,2,4-oxadiazol-5-yl)methyl]-1-(3-methoxyphenyl)-urea] | – | – | – | – | – | – | – | – | – | – | – | – | – | – | 9.336 | 6.83 | 6.48 | 0.942 | 0.068 | 0.064 ng/mL and 0.069 ng/mL and 0.070 ng/mL | –
O=C(Nc1ccccc1)Nc1ccc(OC(F)(F)F)cc1 [L01.061, 1-phenyl-3-[4-(trifluoro-methoxy)phenyl]urea] | – | – | – | – | – | – | – | – | – | – | – | – | – | – | 19.349 | 14.2 | 15.9 | 6.360 | 0.456 | 0.508 ng/mL and 0.439 ng/mL and 0.420 ng/mL | –
O=C(Nc1cccc(Cl)c1)Nc1ccc([N+](=O)[O-])cc1Cl [TCMDC-143175, 3-(2-chloro-4-nitrophen-yl)-1-(3-chlorophenyl)-urea] | 35.5 | 74.7 | 91.4 | 35.3 | 72.8 | 91.5 | 49.754 | 104.647 | 128.113 | 0.105 | 0.102 ng/mL and 0.104 ng/mL and 0.110 ng/mL | 0.291 | 0.309 ng/mL and 0.275 ng/mL and 0.290 ng/mL | 0.417 | – | – | – | – | – | – | IL-1β [2, 14]: 0.423 ng/mL and 0.381 ng/mL and 0.446 ng/mL; Average (% positive control) [2, 15]: 1.666 % positive control; Average (% positive control) [2, 16]: 4.609 % positive control; Average (% positive control) [2, 17]: 6.592 % positive control
Cc1ccc(-c2noc(CN3C(=O)CN(c4ccccc4)C3=O)n2)cc1 [L01.127, 3-{[3-(4-methylphenyl)-1,2,4-oxadiazol-5-yl]-methyl}-1-phenylimid-azolidine-2,4-dione] | – | – | – | – | – | – | – | – | – | – | – | – | – | – | 14.301 | 10.5 | 11 | 6.538 | 0.469 | 0.490 ng/mL and 0.475 ng/mL and 0.441 ng/mL | –
CCc1ccc(Cl)c(CC)c1NC(=O)NC(c1nc(-c2cccnc2)no1)C(C)C (stereo not drawn) [L01.113, 1-(3-chloro-2,6-diethyl-phenyl)-3-{2-methyl-1-[3-(pyridin-3-yl)-1,2,4-oxadiazol-5-yl]propyl}-urea] | – | – | – | – | – | – | – | – | – | – | – | – | – | – | 49.256 | 36 | 37.4 | 15.691 | 1.125 | 1.145 ng/mL and 1.165 ng/mL and 1.064 ng/mL | –
